Results: paper PMC6981454, “Promising 2,6,9-Trisubstituted Purine Derivatives for Anticancer Compounds: Synthesis, 3D-QSAR, and Preliminary Biological Assays” (International Journal of Molecular Sciences, 2019)
Where two headings read alike, the source gives them in different places.

Legend:
Format in all cases: cell-based, human
[1] = tested on: CACO2; assay: MTT cytotoxicity assay, 72 h
Description: Cytotoxicity assays were performed by using the MTT reduction method as described in the literature [23, 37]. Briefly, cancer cell lines were plated in a flat-bottom 96-wells plate at 1 × 10^4 cells per well density. Then, the cells were incubated with synthetized compounds at different concentrations (from 0.1 to 100 µM) in 200 µL of 10% fetal bovine serum-RPMI or EMEM culture medium at 37 °C for 72 h. Then, 10 µL of MTT was added at a final concentration of 0.5 mg/mL, incubated at 37 °C for 4 h, and then solubilized with 10% sodium dodecyl sulphate (SDS) in 0.1 mM HCl and incubated overnight at 37 °C. Formazan formation was measured at 570 nm in a multi-well reader (StatFax 4200).

[2] = tested on: MRC-5; assay: MTT cytotoxicity assay, 72 h, normal control cells; conditions: normal fibroblasts
Description: (§1) In our study, the human cancer cell lines used were CFAPC- 1 (pancreatic adenocarcinoma); NCI-H460 (large cell lung); HL-60 (acute promyelocytic leukaemia); CACO2 (colorectal adenocarcinoma); HCT-116 (colorectal carcinoma); K562 (chronic myeloid leukaemia); MCF-7 (breast adenocarcinoma); and MRC-5 control cells (normal fibroblasts).
(§2) CFAPC-1, NCI-H460 H1975, HL-60, HCT-116, CACO2, K562, MCF-7, and MCR-5 were grown and maintained in RPMI 1640 and DMEM F12 as appropriate with 10% fetal bovine serum, 100 UI/mL penicillin–streptomycin, and cultured al 37 °C in 5% CO2 humidified atmosphere. Control cultures were treated with dimethyl sulfoxide (1%) alone at the same concentration as in the purine derivatives treatment. Cell viability was determined by trypan blue dye exclusion. Cell numbers were counted in hemocytometer by light microscopy.
(§3) Cytotoxicity assays were performed by using the MTT reduction method as described in the literature. Briefly, cancer cell lines were plated in a flat-bottom 96-wells plate at 1 × 10^4 cells per well density. Then, the cells were incubated with synthetized compounds at different concentrations (from 0.1 to 100 µM) in 200 µL of 10% fetal bovine serum-RPMI or EMEM culture medium at 37 °C for 72 h. Then, 10 µL of MTT was added at a final concentration of 0.5 mg/mL, incubated at 37 °C for 4 h, and then solubilized with 10% sodium dodecyl sulphate (SDS) in 0.1 mM HCl and incubated overnight at 37 °C. Formazan formation was measured at 570 nm in a multi-well reader (StatFax 4200).

[3] = tested on: NCI-H460; assay: MTT cytotoxicity assay, 72 h; conditions: for Selectivity Index (SI) MRC-5/NCI-H460: IC50 in MRC-5 / IC50 in NCI-H460
Description: as §1, §2, §3

[4] = tested on: HL-60; assay: MTT cytotoxicity assay, 72 h; conditions: for Selectivity Index (SI) MRC-5/HL-60: IC50 in MRC-5 / IC50 in HL-60
Description: as §1, §2, §3

[5] = tested on: CFPAC-1; assay: MTT cytotoxicity assay, 72 h
Description: as §1, §2, §3

[6] = tested on: MCF-7; assay: MTT cytotoxicity assay, 72 h; conditions: for IC50: MTT, 72 h, IC50 ± SD
Description: as §1, §2, §3

[7] = tested on: HCT-116; assay: MTT cytotoxicity assay, 72 h
Description: as §1, §2, §3

[8] = tested on: K562; assay: MTT cytotoxicity assay, 72 h; conditions: for IC50: MTT, 72 h, IC50 ± SD; for Selectivity Index (SI) MRC-5/K562: IC50 in MRC-5 / IC50 in K562
Description: as §1, §2, §3

[9] = tested on: HL-60 cells; assay: Cell viability by propidium iodide flow cytometry; conditions: HL-60, 50 μM, 24 h, PI staining
From the text: Next, in order to determinate the cell death type induced by the most promising compounds, we performed a flow cytometry analysis of cell viability in cell line HL-60 treated with the most promising compounds (selected according to their IC50 values and SI). The HL-60 cancer cells were chosen due to their sensitivity to prepared compounds. […] As a preliminary apoptosis filter, propidium iodide (PI) staining was used through flow cytometry analysis which discriminated a population of viable cells impermeable to PI (PI negative) from necrotic cells PI-permeable (PI positive) and apoptotic cells (the difference of the previous two). The results are shown in Figure 7, illustrating that all purine derivatives tested induced apoptosis on HL-60 cells. Around 40% of apoptotic cells were detected in a culture treated with compounds 7a and 7i, 30% by 7e, 7g, and 7h and 70% by 7d and 7j. […] (For dot plots, see Supplementary Information Figures S1–S3.)
Cell viability was analyzed by flow cytometry as previously described. In this assay, after setting the baseline to exclude cell debris, cells impermeable to propidium iodide (PI negative) are considered as viable. Two populations of PI-permeable dead cells are distinguished based on fluorescence intensity, corresponding to either hypodiploid apoptotic cells or necrotic cells with intact DNA. Here, HL60 cells were incubated with concentrations of 50 µM of each compound for 24 h at 37 °C. Cells were harvested and stained with 10 µg/mL of propidium iodide to determine cell viability. Samples containing roughly 1 × 10^4 cells were evaluated by flow cytometry (FACScanto II; Becton Dickinson, Mountain View, CA) and analyzed using FCS Express v6 software. Three independent biological replicates were performed.

[10] = Homo sapiens, Caco-2, IC50 ± SD
[11] = Homo sapiens, NCI-H460, 72 h, MTT, 72 h, IC50 ± SD, read-out: IC50 NCI-H460
[12] = Homo sapiens, NCI-H460, -logIC50 in molar concentration, Table S2, read-out: Experimental pIC50 (NCI-H460) (converted)
[13] = Homo sapiens, HL-60, 72 h, MTT, 72 h, IC50 ± SD, read-out: IC50 HL-60
[14] = Homo sapiens, HL-60, -logIC50 in molar concentration, Table S1, read-out: Experimental pIC50 (HL-60) (converted)
[15] = Homo sapiens, CFPAC-1, IC50 ± SD
[16] = Homo sapiens, HCT-116, IC50 ± SD
[17] = MTT, 72 h, IC50 ± SD, read-out: IC50 NCI-H460
[18] = MTT, 72 h, IC50 ± SD, read-out: IC50 HL-60

| Compound | IC50 [1, 10] [µM] | IC50 ([2]; Homo sapiens, MRC5, IC50 ± SD) [µM] | IC50 [3, 11] [µM] | IC50 [3, 12] [µM] | Selectivity Index (SI) MRC-5/NCI-H460 [3] | IC50 [4, 13] [µM] | IC50 [4, 14] [µM] | Selectivity Index (SI) MRC-5/HL-60 [4] | IC50 [5, 15] [µM] | IC50 ([6]; Homo sapiens, MCF7, 72 h) [µM] | IC50 [7, 16] [µM] | IC50 ([8]; Homo sapiens, K562, 72 h) [µM] | apoptotic cells [9] | IC50 [3, 17] [µM] | IC50 ([2]; IC50 ± SD) [µM] | IC50 [4, 18] [µM] | IC50 ([5]; IC50 ± SD) [µM] | IC50 [6] [µM] | IC50 ([7]; IC50 ± SD) [µM] | IC50 [8] [µM] | other results |
| --- | --- | --- | --- | --- | --- | --- | --- | --- | --- | --- | --- | --- | --- | --- | --- | --- | --- | --- | --- | --- | --- |
| Clc1nc(N2CCN(c3cnccn3)CC2)c2ncn(C3CCCC3)c2n1 [7d, 2-Chloro-9-cyclopentyl-6-(4-(pyrazin-2-yl)piperazin-1-yl)-9H-purine] | > 100 | 17 ± 1 | 8.25 ± 0.11 | 8.25 | 2.0 | 4.6 ± 0.2 | 4.6 | 3.7 | > 100 | > 12.5 | > 50 | 5.86 ± 1.06 | ~70% | – | – | – | – | – | – | – | Selectivity Index (SI) MRC-5/K562 [8]: 2.9 |
| Clc1nc(N2CCC(c3ccccc3)CC2)c2ncn(C3CCCC3)c2n1 [7e, 2-Chloro-9-cyclopentyl-6-(4-phenylpiperidin-1-yl)-9H-purine] | > 100 | > 100 | 11 ± 1 | 11 | > 9.1 | 3 ± 0.6 | 3 | > 33.3 | > 100 | – | > 50 | – | ~30% | – | – | – | – | – | – | – | – |
| Clc1nc(N2CCN(c3ccccc3)CC2)c2ncn(C3CCCC3)c2n1 [7f, 2-Chloro-9-cyclopentyl-6-(4-phenylpiperazin-1-yl)-9H-purine] | > 100 | > 100 | 6.71 ± 0.23 | 6.71 | – | 1.3 ± 0.5 | 1.3 | – | > 100 | 6.13 ± 0.25 | > 50 | 4.22 ± 0.27 | – | – | – | – | – | – | – | – | – |
| Clc1nc(N2CCN(c3ccncc3)CC2)c2ncn(C3CCCC3)c2n1 [7i, 2-Chloro-9-cyclopentyl-6-(4-(pyridin-4-yl)piperazin-1-yl)-9H-purine] | > 100 | > 100 | < 10 | 8.54 | > 11.7 | 3.8 ± 1.5 | 3.8 | > 26.3 | > 100 | 22 ± 1 | > 50 | 9.96 ± 0.93 | Around 40% | 8.54 ± 0.21 | – | – | – | – | – | – | Selectivity Index (SI) MRC-5/MCF-7 ([6]; IC50 in MRC-5 / IC50 in MCF-7): > 4.5; Selectivity Index (SI) MRC-5/K562 [8]: > 10 |
| N.N.[Cl][Pt][Cl] [Cisplatin, reference compound] | – | – | – | – | – | – | – | – | – | – | – | – | 66% | 4.77 ± 0.13 | 6.78 ± 0.18 | 6.2 ± 0.2 | 3.16 ± 0.1 | 10.9 ± 0.8 | 3.89 ± 1.3 | 4.67 ± 0.38 | IC50 ([3]; MTT, 72 h, IC50 ± SD, listed as cisplatin, read-out: IC50 NCI-H460): 4.8 µM |
| N-cycloheptyl-9-ethyl-6-(4-(trifluoromethoxy)phenyl)-9H-purin-2-amine [4d] | – | – | – | – | – | – | – | – | – | – | – | – | – | > 100 | > 100 | 21 ± 1 | > 100 | > 25 | > 50 | > 25 | IC50 ([1]; IC50 ± SD): > 100 µM; Experimental pIC50 (HL-60) ([4]; -logIC50 in molar concentration, Table S1): 4.6778 M |
| N-cyclohexyl-9-ethyl-6-(4-(trifluoromethoxy)phenyl)-9H-purin-2-amine [4b] | – | – | – | – | – | – | – | – | – | – | – | – | – | > 100 | > 100 | > 50 | > 100 | > 25 | > 50 | > 25 | IC50 ([1]; IC50 ± SD): > 100 µM |
